# Experimental data: patent EP1072948B1, “Thermally processed image recording material” (FUJIFILM Corporation, priority 1999, dated 2001)
# Assays:
# [1] = Example 1: image storage stability 1 (developed material stored in the dark); details: 24 hours, relative humidity 50%
# Method: (§1) After each thermally processed image recording material was light-exposed by a laser sensitometer (details are given below), the thermally processed image recording material was treated at 118°C for 5 seconds and then treated at 122°C for 16 seconds (heat development).
# (§2) The evaluation of the image obtained was performed by using a Macbeth TD904 densitometer (visible density). The measurement results were evaluated as Dmin, sensitivity (evaluated by a relative value of a reciprocal of a ratio of exposure amounts giving a density higher than Dmin by 1.0, and the sensitivity of the thermally processed image recording material of Experiment No. 1 shown in Table 1 below was defined as 100), Dmax, and gradation (contrast) (fresh photographic properties). The contrast was expressed by a gradient of a straight line connecting the points at the densities from which the value for Dmin was subtracted, 0.5 and 1.5, with the abscissa being a logarithm of the exposure amount.
# [2] = Example 1: image storage stability 2 (developed material stored under light irradiation); details: 24 hours, 10,000 luces, relative humidity 50%
# Method: as §1, §2
# [3] = Example 2: image storage stability 1 (developed material stored in the dark); details: 24 hours, relative humidity 50%
# Method: (§3) Each light-exposed thermally processed image recording material was heat-developed by using a heat-developing apparatus as shown in Fig.1. The roller surface material of the heat development section was composed of silicone rubber, and the flat surface consisted of Teflon non-woven fabric. The heat development was performed at a transportation linear speed of 20 mm/second and a temperature of 90-110°C in the preheating section for 15 seconds (driving units of the preheating section and the heat development section were independent from each other, and speed difference as to the heat development section was adjusted to -0.5% to -1%), and 120°C for 20 seconds in the heat development section, and for 15 seconds in the gradual cooling section. The temperature precision as for the transverse direction was ±1°C.
# as §2, with “0.3” for “0.5”
# [4] = Example 2: image storage stability 2 (developed material stored under light irradiation); details: 24 hours, 10,000 luces, relative humidity 50%
# Method: as §3
# as §2, with “0.3” for “0.5”
SMILES,"Image storage stability-1 (stored in dark, 60°C, 50%) Dmax ([1]; Table 1, 1.6×10^-1 mol/mol-Ag)","Image storage stability-1 (stored in dark, 60°C, 50%) Dmin ([1]; Table 1, 1.6×10^-1 mol/mol-Ag)","Image storage stability-2 (stored in light, 40°C, 50%) Dmax ([2]; Table 1, 1.6×10^-1 mol/mol-Ag)","Image storage stability-2 (stored in light, 40°C, 50%) Dmin ([2]; Table 1, 1.6×10^-1 mol/mol-Ag)","Image storage stability-1 (stored in dark, 60°C, 50%) Dmax ([3]; Table 3, 8×10^-2 mol/mol-Ag)","Image storage stability-1 (stored in dark, 60°C, 50%) Dmin ([3]; Table 3, 8×10^-2 mol/mol-Ag)","Image storage stability-2 (stored in light, 40°C, 50%) Dmax ([4]; Table 3, 8×10^-2 mol/mol-Ag)","Image storage stability-2 (stored in light, 40°C, 50%) Dmin ([4]; Table 3, 8×10^-2 mol/mol-Ag)","Image storage stability-1 (stored in dark, 60°C, 50%) Dmax ([1]; Table 2, 1.6×10^-1 mol/mol-Ag)","Image storage stability-1 (stored in dark, 60°C, 50%) Dmin ([1]; Table 2, 1.6×10^-1 mol/mol-Ag)","Image storage stability-2 (stored in light, 40°C, 50%) Dmax ([2]; Table 2, 1.6×10^-1 mol/mol-Ag)","Image storage stability-2 (stored in light, 40°C, 50%) Dmin ([2]; Table 2, 1.6×10^-1 mol/mol-Ag)","Image storage stability-1 (stored in dark, 60°C, 50%) Dmax ([3]; Table 4, 8×10^-2 mol/mol-Ag)","Image storage stability-1 (stored in dark, 60°C, 50%) Dmin ([3]; Table 4, 8×10^-2 mol/mol-Ag)","Image storage stability-2 (stored in light, 40°C, 50%) Dmax ([4]; Table 4, 8×10^-2 mol/mol-Ag)","Image storage stability-2 (stored in light, 40°C, 50%) Dmin ([4]; Table 4, 8×10^-2 mol/mol-Ag)"
CCCCCCOCCN(CC)C(=O)c1cccc(S(=O)(=O)C(Br)(Br)Br)c1 [Comparative Compound 1],2.1,0.17,2.5,0.17,2.7,0.08,3.2,0.08,,,,,,,,
CCNC(=O)c1ccccc1S(=O)(=O)C(Br)(Br)Br [Comparative Compound 3],2.9,0.41,3.0,0.25,4.1,0.35,4.1,0.15,,,,,,,,
CCCCCCCCCCCCCCCCNC(=O)c1cccc(S(=O)(=O)C(Br)(Br)Br)c1 [Comparative Compound (1)],,,,,,,,,2.8,0.54,2.8,0.43,3.6,0.35,3.4,0.22
O=C(c1cccc(S(=O)(=O)C(Br)(Br)Br)c1)N1CCCC1 [Comparative Compound (3)],,,,,,,,,2.9,0.42,3.0,0.40,3.6,0.44,3.6,0.23
CCCCCCCCN(CCCCCCCC)S(=O)(=O)c1ccc(S(=O)(=O)C(Br)(Br)Br)cc1 [Comparative Compound (4)],,,,,,,,,2.8,0.59,2.9,0.47,3.7,0.39,3.6,0.25
CCCCCCCCCCCCN(CCCCCCCCCCCC)C(=O)c1cc(S(C)(=O)=O)ccc1S(=O)(=O)C(Br)(Br)Br [Comparative Compound (5)],,,,,,,,,2.8,0.60,2.9,0.50,3.7,0.43,3.7,0.29
CCCCOCCCNC(=O)c1cccc(S(=O)(=O)C(Br)(Br)Br)c1 [P'-15],,,,,,,,,3.0,0.18,3.0,0.17,3.9,0.09,4.0,0.07
CCCCNS(=O)(=O)c1cccc(S(=O)(=O)C(Br)(Br)Br)c1 [P-18],3.0,0.20,3.0,0.20,,,,,,,,,,,,

# Further lines, results first:
"Image storage stability-1 (stored in dark, 60°C, 50%) Dmax ([1]; Table 1, 1.6×10^-1 mol/mol-Ag)","Image storage stability-1 (stored in dark, 60°C, 50%) Dmin ([1]; Table 1, 1.6×10^-1 mol/mol-Ag)","Image storage stability-2 (stored in light, 40°C, 50%) Dmax ([2]; Table 1, 1.6×10^-1 mol/mol-Ag)","Image storage stability-2 (stored in light, 40°C, 50%) Dmin ([2]; Table 1, 1.6×10^-1 mol/mol-Ag)","Image storage stability-1 (stored in dark, 60°C, 50%) Dmax ([3]; Table 3, 8×10^-2 mol/mol-Ag)","Image storage stability-1 (stored in dark, 60°C, 50%) Dmin ([3]; Table 3, 8×10^-2 mol/mol-Ag)","Image storage stability-2 (stored in light, 40°C, 50%) Dmax ([4]; Table 3, 8×10^-2 mol/mol-Ag)","Image storage stability-2 (stored in light, 40°C, 50%) Dmin ([4]; Table 3, 8×10^-2 mol/mol-Ag)","Image storage stability-1 (stored in dark, 60°C, 50%) Dmax ([1]; Table 2, 1.6×10^-1 mol/mol-Ag)","Image storage stability-1 (stored in dark, 60°C, 50%) Dmin ([1]; Table 2, 1.6×10^-1 mol/mol-Ag)","Image storage stability-2 (stored in light, 40°C, 50%) Dmax ([2]; Table 2, 1.6×10^-1 mol/mol-Ag)","Image storage stability-2 (stored in light, 40°C, 50%) Dmin ([2]; Table 2, 1.6×10^-1 mol/mol-Ag)","Image storage stability-1 (stored in dark, 60°C, 50%) Dmax ([3]; Table 4, 8×10^-2 mol/mol-Ag)","Image storage stability-1 (stored in dark, 60°C, 50%) Dmin ([3]; Table 4, 8×10^-2 mol/mol-Ag)","Image storage stability-2 (stored in light, 40°C, 50%) Dmax ([4]; Table 4, 8×10^-2 mol/mol-Ag)","Image storage stability-2 (stored in light, 40°C, 50%) Dmin ([4]; Table 4, 8×10^-2 mol/mol-Ag)",SMILES
,,,,,,,,3.0,0.18,3.0,0.17,3.9,0.09,4.0,0.08,CCOCCNC(=O)c1cccc(S(=O)(=O)C(Br)(Br)Br)c1 [P'-1]
,,,,,,,,3.0,0.17,3.0,0.17,3.9,0.09,4.0,0.08,CCC(CC)NC(=O)c1cccc(S(=O)(=O)C(Br)(Br)Br)c1 [P'-18]
,,,,,,,,3.0,0.17,3.0,0.17,3.9,0.09,4.0,0.07,CCCC(C)NC(=O)c1cccc(S(=O)(=O)C(Br)(Br)Br)c1 (centres unmarked) [P'-20]
2.9,0.17,3.0,0.17,3.9,0.09,4.0,0.08,,,,,,,,,COCCCNC(=O)c1cccc(S(=O)(=O)C(Br)(Br)Br)c1 [P-11]
